Test results reported in US9896491B2, “Composition for treatment of multiple sclerosis” (LIFEBIO LABORATORIES LLC, priority 2009, dated 2018).
Read-outs that look alike come from different tables or passages of the source.

How the values were obtained:
ESAMBPCAA [1] = assay: ESAMBPCAA mediated MBP hydrolysis in serum of treated EAE DA rats; format: in vivo; conditions: days 8-12; for rates of MBP-specific auto antibody mediated hydrolysis: 120 μg daily intranasal, median for 6 animals; for suppression of MBP-specific auto antibody mediated hydrolysis: intranasal, dose-dependent for SEQ ID NO: 2
ESAMBPCAA [2] = assay: ESAMBPCAA mediated MBP hydrolysis in serum samples of progressive MS patients in presence of test substances; format: biochemical, human; conditions: for suppressive effect on MBP-specific auto antibody mediated hydrolysis: 100 nM, summary of Table 3; for MBP-specific auto antibody mediated hydrolysis: test substance 100 nM
Protocol: (§1) MBP hydrolysis by anti MBP auto antibodies was assayed as follows: Purified antibodies (0.1-1 μg) were incubated at 37° C. for 14 h in the final volume of 12.5 μl PBS, 0.02% NaN3 containing 1-2 μg of MBP. The samples were mixed with Laemmli's buffer. The extent of MBP degradation was visualized by SDS-PAGE in Tris-glycine and Tricine buffer systems. For quantitative MBP degradation assay, MBP (10 μM) was incubated at 37° C. with antibodies (60 nM) in 0.1 ml of PBS, 0.02% NaN3 for 12 h. The reaction was stopped by adding 10% TFA up to pH 2.5. The samples were further chromatographed on column C4 4.0/150 (Waters). The amount of non-cleaved MBP was calculated by absorbance monitoring at 280 nm.
Serum samples collected from 5 patients suffering from progressive MS were quantified for ESAMBPCAA mediated MBP hydrolysis as specified in Example 1 in presence of following substances: […]

[3] = tested on: Experimental Allergic Encephalomyelitis (EAE) in DA rats; assay: MDS score in EAE DA rats; format: in vivo; conditions: intranasal, days 8-12; FIG. 4; dose-dependent for SEQ ID NO: 2
[4] = tested on: progressive multiple sclerosis patients; conditions: 500 mg intravenously every six months; cited from earlier work
ESAMBPCAA [5] = assay: ESAMBPCAA mediated MBP hydrolysis in serum of treated TMEV-infected SJL mice; format: in vivo; conditions: days 14-24
Protocol: as §1
(§2) The BeAn strain of TMEV used in this study was generated and propagated in BHK-21 cells grown in Dulbecco's modified Eagle's medium supplemented with 7.5% donor calf serum. For i.c. infection, 30 μl of virus solution (0.2×10^6 to 6×10^6 PFU) was injected into the right cerebral hemisphere of 6- to 8-week-old SJL mice (8 animals per group) anesthetized with isoflurane. Clinical symptoms (MDS score) of disease were assessed weekly on the following grading scale: grade 0, no clinical signs; grade 1, mild waddling gait or flaccid tail; grade 2, severe waddling gait; grade 3, moderate hind limb paresis; and grade 4, severe hind limb paralysis. Serum samples collected from animals were quantified for ESAMBPCAA mediated MBP hydrolysis as specified in Example 1
(§3) At day 14 following infection mice were divided into 6 groups ([…]) and treated during 10 days (days 14-24) according following schedule: […]

[6] = tested on: Experimental Allergic Encephalomyelitis (EAE) in Dark Agouti (DA) Rats; assay: EAE induced by MBP 63-81 in DA rats: clinical signs score; format: in vivo; conditions: for therapeutic effect: 150 μg/rat/day SC during 6 days; for Clinical signs score on day 23 after induction (mean): 150 μg/rat/day SC during 6 days from day 9-11 after EAE induction, score 0-5
Protocol: Female Dark Agouti (DA) Rats, 8-9 weeks of age, about 110-145 g of weight were used as test animals.
For induction of Experimental Allergic Encephalomyelitis (EAE), rats were injected intradermally at the base of the tail with a total volume of 200 μl of inoculum containing 50 μg of MBP 63-81 (ANASPEC), in saline mixed (1:1) with Complete Freund Adjuvant, (IFA, Sigma), and 1 mg killed M. tuberculosis strain (strain H37 RA; Difco Laboratories, Detroit, Mich.). Beginning 24 hours after EAE induction the rats were followed up daily. On day 9 after the after EAE induction more than 50% of the rats developed signs of paralysis. The animals with multiple sclerosis signs were separated into 10 groups for beginning of treatment. Prior to treatment, blood was collected from 2 rats from each group. At day 9 and 11 after EAE induction, 90% of rats developed signs of EAE.
9-11 days after EAE induction the animals were divided into 9 groups (5-6 rats in each). Each group of rats was treated subcutaneously once daily with different claimed oligopeptide or theirs combinations (equimolar mix) (150 μg) or doses of positive control item (Glatiramer acetate, Copaxone, Teva) or negative control item (0.9% Sodium chloride solution), during 6 days as follows:
Copaxone, claimed oligopeptide and combinations thereof (Mechanical mix) were diluted with 0.9% Sodium chloride to a concentration of 450 μg/ml. Volume of 0.33 ml (150 μg/rat/day) was injected SC during 6 days.
After 6 days of the injections cycle the animals were maintained and followed up till day 28th post EAE induction. Clinical signs score was performed daily during study periods. Animals were observed individually during all study periods. In cases of extended observation period clinical signs were recorded once daily. Observations included changes in the fur, eyes, respiratory rate, vocalization, paralysis, activity and behavior pattern. Score of paralysis signs related to MS of each animal was done daily (during all study periods).
Score gradation was as follows: 0—Normal; 1—Tail weakness; 2—Hind leg weakness or paralysis; 3—Hind leg paralysis, dragging hind limbs; 4—Complete paralysis, unable to move; 5—Death.

[7] = tested on: Experimental MS (Theiler's Virus Infection) in SJL mice; assay: Experimental MS (Theiler's Virus Infection): disease manifestation and MDS score; format: in vivo; conditions: days 14-24; for % Animals affected with disease at day 100: 30 mice per group
Protocol: as §2, §3

antibodies to MBP = conditions: in vitro and in vivo (in blood of MS-patients); cited from earlier work
[8] = tested on: relapsing-remitting multiple sclerosis patients; conditions: Neurology 1995; 45: 1268; cited from earlier work
CD20+ B lymphocytes = conditions: relapsing-remitting multiple sclerosis (RRMS) patients; cited from earlier work
[9] = tested on: relapsing-remitting multiple sclerosis patients; conditions: Neurology 1993; 43: 662-7; cited from earlier work
[10] = 20 μg of each oligopeptide daily subcutaneous

APKRGSGKDSH [A4]
rates of MBP-specific auto antibody mediated hydrolysis (ESAMBPCAA [1]; Day 8 (start of treatment)): 49.3 ± 4.9 pmol/min/nmol | rates of MBP-specific auto antibody mediated hydrolysis (ESAMBPCAA [1]; Day 16): 45.9 ± 7.1 pmol/min/nmol | rates of MBP-specific auto antibody mediated hydrolysis (ESAMBPCAA [1]; Day 24): 45.1 ± 6.3 pmol/min/nmol | suppression of MBP-specific auto antibody mediated hydrolysis (ESAMBPCAA [1]): active in suppression | suppressive effect on MBP-specific auto antibody mediated hydrolysis (ESAMBPCAA [2]): potent suppressive effect | MBP-specific auto antibody mediated hydrolysis (ESAMBPCAA [2]; Patient 1): 12.1 ± 3.6 pmol/min/nmol | MBP-specific auto antibody mediated hydrolysis (ESAMBPCAA [2]; Patient 2): 15.6 ± 2.9 pmol/min/nmol | MBP-specific auto antibody mediated hydrolysis (ESAMBPCAA [2]; Patient 3): 14.3 ± 4.4 pmol/min/nmol | MBP-specific auto antibody mediated hydrolysis (ESAMBPCAA [2]; Patient 4): 15.8 ± 4.9 pmol/min/nmol | MBP-specific auto antibody mediated hydrolysis (ESAMBPCAA [2]; Patient 5): 13.3 ± 5.9 pmol/min/nmol | suppression of MDS score [3]: active in suppression

DENPVVHFFKNIVTPRT [MBP8298, synthetic peptide, amino acid residues 82-98 of MBP]
responders on the treatment [4]: responders on the treatment with MBP8298 are the patients with HLA heliotypes DR2 and/or DR4 only

GFGYGGRASDYKSAHK [SEQ ID NO: 3]
ESAMBPCAA activity at day 100 (ESAMBPCAA [5]; [10]): 40 ± 3.1 pmol/min/nmol | suppression of MBP-specific auto antibody mediated hydrolysis (ESAMBPCAA [5]; [10]): do not affect | therapeutic effect [6]: moderate therapeutic effect | Clinical signs score on day 23 after induction (mean) [6]: 0.9 | therapeutic effect [7, 10]: moderate therapeutic effect | % Animals affected with disease at day 100 [7, 10]: 25(30) %

MBP 35-58: non-binding, control peptide, human MBP 35-58 (LSRTTSEDNEVFGEADANQNNGTS; UniProt P02686 35-58, looked up, fragment)
effect on free and bound antibodies to MBP (antibodies to MBP): no effect

MBP 75-95: soluble synthetic peptide, residues 75-95 of human MBP (WO 98/45327) (NAWQDAHPADPGSRPHLIRLF; UniProt P02686 75-95, looked up, fragment)
effect on free and bound antibodies to MBP (antibodies to MBP): showed its ability to bound free antibodies to MBP both in vitro and in vivo

QGTLSKIFKLGGRDSRSGSPMARR [SEQ ID NO: 4]
ESAMBPCAA activity at day 100 (ESAMBPCAA [5]; [10]): 35.3 ± 5.1 pmol/min/nmol | suppression of MBP-specific auto antibody mediated hydrolysis (ESAMBPCAA [5]; [10]): do not affect | therapeutic effect [6]: moderate therapeutic effect | Clinical signs score on day 23 after induction (mean) [6]: 0.8 | therapeutic effect [7, 10]: moderate therapeutic effect | % Animals affected with disease at day 100 [7, 10]: 27(30) %

RGAPKRGSGKRGAPKRGSGKRGAPKRGSGKRGAPKRGSGKRGAPKRGSGKRGAPKRGSGK [A6]
rates of MBP-specific auto antibody mediated hydrolysis (ESAMBPCAA [1]; Day 8 (start of treatment)): 45.7 ± 6.5 pmol/min/nmol | rates of MBP-specific auto antibody mediated hydrolysis (ESAMBPCAA [1]; Day 16): 48.1 ± 7.4 pmol/min/nmol | rates of MBP-specific auto antibody mediated hydrolysis (ESAMBPCAA [1]; Day 24): 39.4 ± 4.6 pmol/min/nmol | suppression of MBP-specific auto antibody mediated hydrolysis (ESAMBPCAA [1]): active in suppression | suppressive effect on MBP-specific auto antibody mediated hydrolysis (ESAMBPCAA [2]): potent suppressive effect | MBP-specific auto antibody mediated hydrolysis (ESAMBPCAA [2]; Patient 1): 7.7 ± 3.3 pmol/min/nmol | MBP-specific auto antibody mediated hydrolysis (ESAMBPCAA [2]; Patient 2): 22.3 ± 4.2 pmol/min/nmol | MBP-specific auto antibody mediated hydrolysis (ESAMBPCAA [2]; Patient 3): 20.1 ± 3.9 pmol/min/nmol | MBP-specific auto antibody mediated hydrolysis (ESAMBPCAA [2]; Patient 4): 21.5 ± 6.6 pmol/min/nmol | MBP-specific auto antibody mediated hydrolysis (ESAMBPCAA [2]; Patient 5): 5.0 ± 1.8 pmol/min/nmol | suppression of MDS score [3]: active in suppression

SGKDS [A5]
MBP-specific auto antibody mediated hydrolysis (ESAMBPCAA [2]; Patient 1): 57 ± 4.1 pmol/min/nmol | MBP-specific auto antibody mediated hydrolysis (ESAMBPCAA [2]; Patient 2): 59.7 ± 5.7 pmol/min/nmol | MBP-specific auto antibody mediated hydrolysis (ESAMBPCAA [2]; Patient 3): 44.2 ± 6.6 pmol/min/nmol | MBP-specific auto antibody mediated hydrolysis (ESAMBPCAA [2]; Patient 4): 45.5 ± 3.8 pmol/min/nmol | MBP-specific auto antibody mediated hydrolysis (ESAMBPCAA [2]; Patient 5): 55.7 ± 6.1 pmol/min/nmol

glatiramer acetate [A2, reference compound]
Adverse Reactions [8]: Low | Clinical Observations: Decrease of relapse frequency [8]: frequency—29%; | Clinical Observations: EDSS score progression [8]: Slowing EDSS | MRI Data: decrease of active lesions [8]: No statistical | ESAMBPCAA activity at day 100 (ESAMBPCAA [5]; 30 μg daily subcutaneous): 39.8 ± 4.1 pmol/min/nmol | rates of MBP-specific auto antibody mediated hydrolysis (ESAMBPCAA [1]; Day 8 (start of treatment)): 51.4 ± 8.2 pmol/min/nmol | rates of MBP-specific auto antibody mediated hydrolysis (ESAMBPCAA [1]; Day 16): 55.4 ± 5.7 pmol/min/nmol | rates of MBP-specific auto antibody mediated hydrolysis (ESAMBPCAA [1]; Day 24): 62.2 ± 5.7 pmol/min/nmol | Clinical signs score on day 23 after induction (mean) [6]: 1.1 | % Animals affected with disease at day 100 ([7]; 30 μg daily subcutaneous): 25(30) % | MBP-specific auto antibody mediated hydrolysis (ESAMBPCAA [2]; Patient 1): 62.5 ± 1.2 pmol/min/nmol | MBP-specific auto antibody mediated hydrolysis (ESAMBPCAA [2]; Patient 2): 72.6 ± 7.7 pmol/min/nmol | MBP-specific auto antibody mediated hydrolysis (ESAMBPCAA [2]; Patient 3): 51.2 ± 3.5 pmol/min/nmol | MBP-specific auto antibody mediated hydrolysis (ESAMBPCAA [2]; Patient 4): 47.7 ± 7.9 pmol/min/nmol | MBP-specific auto antibody mediated hydrolysis (ESAMBPCAA [2]; Patient 5): 65.7 ± 5.4 pmol/min/nmol

rituximab: monoclonal antibody, which selectively targets and depletes CD20+ B lymphocytes
safety and efficacy of therapy (CD20+ B lymphocytes): appears safe and effective to some extend

B1: Beta-Interferon: Beta-Interferon, existing standard of MS therapy (protein, UniProt P01574 22-187, looked up, variant C17S)
Interferon beta: MSYNLLGFLQRSSNFQSQKLLWQLNGRLEYCLKDRMNFDIPEEIKQLQQFQKEDAALTIYEMLQNIFAIFRQDSSSTGWNETIVENLLANVYHQINHLKTVLEEKLEKEDFTRGKLMSSLHLKRYYGRILHYLKAKEYSHCAWTIVRVEILRNFYFINRLTGYLRN
modifications: interferon beta-1b, lacks N-terminal Met
notes: Beta-Interferon, existing standard of MS therapy
Adverse Reactions [9]: High | Clinical Observations: Decrease of relapse frequency [9]: frequency—83%; | Clinical Observations: EDSS score progression [9]: No slowing EDSS | MRI Data: decrease of active lesions [9]: 83% decrease
